Measurements reported in publication PMC5698383 (Applied Biochemistry and Biotechnology, 2017).

Key:
FtFBPaseII [1] = target: T1, FtFBPaseII (Francisella tularensis, UniProt Q5NEJ8); assay: biochemical; settings: read-out: % inhibition at 1 mM
T1 construct: gene gplX

FtFBPaseII [2] = target: T1, FtFBPaseII

T1 sequence (Q5NEJ8 1-328): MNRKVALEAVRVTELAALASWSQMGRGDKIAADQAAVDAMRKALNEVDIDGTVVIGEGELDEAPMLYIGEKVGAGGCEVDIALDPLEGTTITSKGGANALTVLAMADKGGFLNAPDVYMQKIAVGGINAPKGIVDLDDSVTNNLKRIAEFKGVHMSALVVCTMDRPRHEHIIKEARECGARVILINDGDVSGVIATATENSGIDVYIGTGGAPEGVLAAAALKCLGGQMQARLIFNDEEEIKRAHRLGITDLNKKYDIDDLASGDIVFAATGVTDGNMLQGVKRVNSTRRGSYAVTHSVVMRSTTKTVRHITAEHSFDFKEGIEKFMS

SMILES	inhibition at 1000 µM (FtFBPaseII [1]) [%]	% inhibition at 150 μM (FtFBPaseII [2]) [%]
Nc1ncnc2c1ncn2[C@@H]1O[C@H](COP(=O)(O)OP(=O)(O)O)[C@@H](O)[C@H]1O [Adenosine diphosphate]	28	–
O=P(O)(O)O [phosphate]	–	69
